Measurements: patent US20100041892A1, “Therapeutic agent for diabetes” (priority 2005, published 2010)

melting point | Compound
87.9 to 89 °C | COCCCNS(=O)(=O)NC(=O)OCCCc1ccc(OCCOC)cc1Oc1ncc(Cl)cc1Cl [Example 428, 3-[2-[(3,5-dichloropyridin-2-yl)oxy]-4-(2-methoxyethoxy)phenyl]propyl {[(3-methoxypropyl)amino]sulfonyl}carbamate]
106 to 106.5 °C | CCCCCS(=O)(=O)NC/C=C/c1ccc(OCCOC)cc1Oc1ncc(C(F)(F)F)cc1Cl [Example 27, N-{(2E)-3-[2-{[3-chloro-5-(trifluoromethyl)pyridin-2-yl]oxy}-4-(2-methoxyethoxy)phenyl]-2-propen-1-yl}pentane-1-sulfonamide]
54 to 55.2 °C | CCCCN(C)C(=O)OCCCc1ccc(OCCOC)cc1Oc1ncc(C(F)(F)F)cc1Cl [Example 50, 3-[2-{[3-chloro-5-(trifluoromethyl)pyridin-2-yl]oxy}-4-(2-methoxyethoxy)phenyl]propyl butyl(methyl)carbamate]
153.2 to 153.8 °C | COCCOc1ccc(CCCOC(=O)NS(N)(=O)=O)c(Oc2ncc(Cl)cc2Cl)c1 [Example 426, 3-[2-[(3,5-dichloropyridin-2-yl)oxy]-4-(2-methoxyethoxy)phenyl]propyl (aminosulfonyl)carbamate]
141 to 144 °C | CCCCCS(=O)(=O)NC(=O)/C=C/c1ccc(OCCOC(C)=O)cc1Oc1ncc(C(F)(F)F)cc1Cl [Example 194, 2-(3-{[3-chloro-5-(trifluoromethyl)pyridin-2-yl]oxy}-4-{(1E)-3-oxo-3-[(pentylsulfonyl)amino]prop-1-en-1-yl}phenoxy)ethyl acetate]
70.4 to 70.5 °C | CCCCCS(=O)(=O)NC(=O)CCc1ccc(OCCOC)cc1Oc1ccccc1 [Example 219, 3-[4-(2-methoxyethoxy)-2-phenoxyphenyl]-N-(pentylsulfonyl)propanamide]
91.7 to 91.8 °C | CCCCNC(=O)OCCCc1ccc(OCCOC)cc1Oc1ncc(C(F)(F)F)cc1Cl [Example 49, 3-[2-{[3-chloro-5-(trifluoromethyl)pyridin-2-yl]oxy}-4-(2-methoxyethoxy)phenyl]propyl butylcarbamate]
96 to 97 °C | CCCCCS(=O)(=O)NC(=O)CCCc1ccc(OCCOC)cc1Oc1ncc(C(F)(F)F)cc1Cl [Example 74, 4-[2-{[3-chloro-5-(trifluoromethyl)pyridin-2-yl]oxy}-4-(2-methoxyethoxy)phenyl]-N-(pentylsulfonyl)butanamide]
81 to 82 °C | CCCCCS(=O)(=O)NC(=O)CCc1ccc(OCCOC)cc1OCC1CCCCC1 [Example 159, 3-[2-(cyclohexylmethoxy)-4-(2-methoxyethoxy)phenyl]-N-(pentylsulfonyl)propanamide]
81.7 to 82.8 °C | CCCCCS(=O)(=O)NC(=O)CCc1ccc(OCCOC)cc1OCC1CC1 [Example 167, 3-[2-(cyclopropylmethoxy)-4-(2-methoxyethoxy)phenyl]-N-(pentylsulfonyl)propanamide]
82 to 85 °C | CCCCCS(=O)(=O)NC(=O)/C=C/c1cc(OCCOC)nn1Cc1ccc(Cl)cc1Cl [Example 109, (2E)-3-[1-(2,4-dichlorobenzyl)-3-(2-methoxyethoxy)-1H-pyrazol-5-yl]-N-(pentylsulfonyl)acrylamide]
57.8 to 58.9 °C | CCCCCS(=O)(=O)NC(=O)CCc1ccc(OCCOC)cc1OCC1CCCO1 (stereo not drawn) [Example 166, 3-[4-(2-methoxyethoxy)-2-(tetrahydrofuran-2-ylmethoxy)phenyl]-N-(pentylsulfonyl)propanamide]
158 to 159 °C | COCCOc1ccc(CCC(=O)NS(N)(=O)=O)c(Oc2ncc(C(F)(F)F)cc2Cl)c1 [Example 73, N-(aminosulfonyl)-3-[2-{[3-chloro-5-(trifluoromethyl)pyridin-2-yl]oxy}-4-(2-methoxyethoxy)phenyl]propanamide]
97 to 100 °C | COCCOc1ccc(CCCNS(=O)(=O)Cc2ccccc2)c(Oc2ncc(C(F)(F)F)cc2Cl)c1 [Example 19, N-{3-[2-{[3-chloro-5-(trifluoromethyl)pyridin-2-yl]oxy}-4-(2-methoxyethoxy)phenyl]propyl}-1-phenylmethanesulfonamide]

Further lines, the molecule ahead of its results:

Compound | melting point
COCCOc1ccc(COC(=O)NS(=O)(=O)NCC(C)C)c(Oc2ncc(C(F)(F)F)cc2Cl)c1 [Example 60, 2-{[3-chloro-5-(trifluoromethyl)pyridin-2-yl]oxy}-4-(2-methoxyethoxy)benzyl [(isobutylamino)sulfonyl]carbamate] | 160 to 161 °C
CCCCCC(=O)NS(=O)(=O)CCc1cc(OC(C)C)nn1Cc1ccc(Cl)cc1Cl [Example 126, N-({2-[1-(2,4-dichlorobenzyl)-3-isopropoxy-1H-pyrazol-5-yl]ethyl}sulfonyl)hexanamide] | 107 to 108 °C
COCCOc1ccc(/C=C(\C)C(=O)NS(=O)(=O)CC(F)(F)F)c(Oc2ncc(C(F)(F)F)cc2Cl)c1 [Example 244, (2E)-3-[2-{[3-chloro-5-(trifluoromethyl)pyridin-2-yl]oxy}-4-(2-methoxyethoxy)phenyl]-2-methyl-N-[(2,2,2-trifluoroethyl)sulfonyl]acrylamide] | 159 to 159.5 °C
COCCCS(=O)(=O)NC(=O)CCc1cc(OCC2CC2)nn1Cc1ccc(C(F)(F)F)cc1Cl [Example 120, 3-[1-[2-chloro-4-(trifluoromethyl)benzyl]-3-(cyclopropylmethoxy)-1H-pyrazol-5-yl]-N-[(3-methoxypropyl)sulfonyl]propanamide] | 152 to 154 °C
CCCCOc1cc(CCS(=O)(=O)NC(=O)OC(C)C)n(Cc2ccc(Cl)cc2Cl)n1 [Example 139, isopropyl ({2-[3-butoxy-1-(2,4-dichlorobenzyl)-1H-pyrazol-5-yl]ethyl}sulfonyl)carbamate] | 120 to 121 °C
COCCOc1cc(/C=C/C(=O)NS(=O)(=O)CCC(C)C)n(Cc2ccc(Cl)cc2Cl)n1 [Example 110, (2E)-3-[1-(2,4-dichlorobenzyl)-3-(2-methoxyethoxy)-1H-pyrazol-5-yl]-N-[(3-methylbutyl)sulfonyl]acrylamide] | 110 to 114 °C
CC(C)CCS(=O)(=O)NC(=O)/C=C/c1cc(C2CC2)nn1Cc1ccc(C(F)(F)F)cc1Cl [Example 118, (2E)-3-{1-[2-chloro-4-(trifluoromethyl)benzyl]-3-cyclopropyl-1H-pyrazol-5-yl}-N-[(3-methylbutyl)sulfonyl]acrylamide] | 145 to 147 °C
COCCOc1ccc(/C=C/COC(=O)NS(=O)(=O)c2ccc(Cl)cc2)c(Oc2ncc(C(F)(F)F)cc2Cl)c1.O.O (hydrate or solvate) [Example 37, (2E)-3-[2-{[3-chloro-5-(trifluoromethyl)pyridin-2-yl]oxy}-4-(2-methoxyethoxy)phenyl]-2-propen-1-yl [(4-chlorophenyl)sulfonyl]carbamate dihydrate] | 174.5 °C (dec.)
CC(C)CCS(=O)(=O)NC(=O)OCc1cc(OC(C)C)nn1Cc1ccc(Cl)cc1Cl [Example 141, [1-(2,4-dichlorobenzyl)-3-isopropoxy-1H-pyrazol-5-yl]methyl [(3-methylbutyl)sulfonyl]carbamate] | 104 to 107 °C
CC(C)CCS(=O)(=O)NC(=O)CCc1cc(OC(C)C)nn1Cc1ccc(Cl)cc1Cl [Example 92, 3-[1-(2,4-dichlorobenzyl)-3-isopropoxy-1H-pyrazol-5-yl]-N-[(3-methylbutyl)sulfonyl]propanamide] | 143 to 145 °C
CC(C)Oc1cc(CCCNC(=O)NS(=O)(=O)c2ccccc2)n(Cc2ccc(Cl)cc2Cl)n1 [Example 39, N-[({3-[1-(2,4-dichlorobenzyl)-3-isopropoxy-1H-pyrazol-5-yl]propyl}amino)carbonyl]benzenesulfonamide] | 149 °C
CCCCCS(=O)(=O)NC(=O)/C=C/c1cc(OCC2(C)COC2)nn1Cc1ccc(C(F)(F)F)cc1Cl [Example 113, (2E)-3-{1-[2-chloro-4-(trifluoromethyl)benzyl]-3-[(3-methyloxetan-3-yl)methoxy]-1H-pyrazol-5-yl}-N-(pentylsulfonyl)acrylamide] | 144 to 147 °C
COCCCNS(=O)(=O)NC(=O)OCc1ccc(OCCOC)cc1Oc1ncc(C(F)(F)F)cc1Cl [Example 75, 2-{[3-chloro-5-(trifluoromethyl)pyridin-2-yl]oxy}-4-(2-methoxyethoxy)benzyl {[(3-methoxypropyl)amino]sulfonyl}carbamate] | 149 to 149.5 °C
CCCCCS(=O)(=O)NC(=O)/C=C/c1ccc(OCCO[Si](c2ccccc2)(c2ccccc2)C(C)(C)C)cc1Oc1ncc(C(F)(F)F)cc1Cl (hydrate or solvate) | 108 to 108.5 °C
COCCOc1ccc(/C=C/C(=O)NS(=O)(=O)c2ccc(C)cc2)c(Oc2ncc(C(F)(F)F)cc2Cl)c1 [Example 236, (2E)-3-[2-{[3-chloro-5-(trifluoromethyl)pyridin-2-yl]oxy}-4-(2-methoxyethoxy)phenyl]-N-[(4-methylphenyl)sulfonyl]acrylamide] | 102.5 to 106.5 °C
C/C(=C\c1ccc(OC(C)C)cc1Oc1ncc(C(F)(F)F)cc1Cl)C(=O)NS(=O)(=O)NCc1cnc(C)cn1 [Example 470, (2E)-3-(2-{[3-chloro-5-(trifluoromethyl)pyridin-2-yl]oxy}-4-isopropoxyphenyl)-2-methyl-N-({[(5-methylpyrazin-2-yl)methyl]amino}sulfonyl)acrylamide] | 126 to 128 °C
CCCCCC(=O)NS(=O)(=O)/C=C/c1cc(OC(C)C)nn1Cc1ccc(Cl)cc1Cl [Example 125, N-({(E)-2-[1-(2,4-dichlorobenzyl)-3-isopropoxy-1H-pyrazol-5-yl]vinyl}sulfonyl)hexanamide] | 73 to 75 °C
COCCCOc1ccc(CCCOC(=O)NS(=O)(=O)NCCOC(C)C)c(Oc2ncc(C(F)(F)F)cc2Cl)c1 [Example 474, 3-[2-{[3-chloro-5-(trifluoromethyl)pyridin-2-yl]oxy}-4-(3-methoxypropoxy)phenyl]propyl {[(2-isopropoxyethyl)amino]sulfonyl}carbamate] | 67.4 to 68 °C
COCCOc1ccc(COC(=O)NS(=O)(=O)c2ccc(Cl)cc2)c(Oc2ncc(C(F)(F)F)cc2Cl)c1 [Example 65, 2-{[3-chloro-5-(trifluoromethyl)pyridin-2-yl]oxy}-4-(2-methoxyethoxy)benzyl [(4-chlorophenyl)sulfonyl]carbamate] | 112 to 115 °C
